The values below come from ChEMBL document CHEMBL1240475, “Design and synthesis of novel isoxazole-based HDAC inhibitors” (Eur J Med Chem, 2010).

For orientation: inhibition means how much of the control response was suppressed. High values mean strong suppression, low ones little suppression. What is called IC50 is the midpoint of a concentration-inhibition curve. Read a low IC50 as higher potency.

Experiment [1] has as its target T1, Histone deacetylase (Homo sapiens) (UniProt Q13547+O15379+Q9UBN7+Q92769+Q9UQL6+Q8WUI4+Q9BY41+Q96DB2+P56524+Q9UKV0+Q969S8). The following applies: HeLa, at 10 µM.
Description: Inhibition of HDAC in human HeLa cells at 10 uM after 15 mins
Experiment [2] addresses T1, Histone deacetylase (Homo sapiens). The following applies: HeLa, at 0.1 µM.
Description: Inhibition of HDAC in human HeLa cells at 0.1 uM after 15 mins
For experiment [3] the target is unchanged. The note with it: HeLa, at 1 µM.
Description: Inhibition of HDAC in human HeLa cells at 1 uM after 15 mins
Experiment [4] deals with T2, Protein deacetylase HDAC6 (Homo sapiens, UniProt Q9UBN7).
T2 sequence (Q9UBN7 whole entry): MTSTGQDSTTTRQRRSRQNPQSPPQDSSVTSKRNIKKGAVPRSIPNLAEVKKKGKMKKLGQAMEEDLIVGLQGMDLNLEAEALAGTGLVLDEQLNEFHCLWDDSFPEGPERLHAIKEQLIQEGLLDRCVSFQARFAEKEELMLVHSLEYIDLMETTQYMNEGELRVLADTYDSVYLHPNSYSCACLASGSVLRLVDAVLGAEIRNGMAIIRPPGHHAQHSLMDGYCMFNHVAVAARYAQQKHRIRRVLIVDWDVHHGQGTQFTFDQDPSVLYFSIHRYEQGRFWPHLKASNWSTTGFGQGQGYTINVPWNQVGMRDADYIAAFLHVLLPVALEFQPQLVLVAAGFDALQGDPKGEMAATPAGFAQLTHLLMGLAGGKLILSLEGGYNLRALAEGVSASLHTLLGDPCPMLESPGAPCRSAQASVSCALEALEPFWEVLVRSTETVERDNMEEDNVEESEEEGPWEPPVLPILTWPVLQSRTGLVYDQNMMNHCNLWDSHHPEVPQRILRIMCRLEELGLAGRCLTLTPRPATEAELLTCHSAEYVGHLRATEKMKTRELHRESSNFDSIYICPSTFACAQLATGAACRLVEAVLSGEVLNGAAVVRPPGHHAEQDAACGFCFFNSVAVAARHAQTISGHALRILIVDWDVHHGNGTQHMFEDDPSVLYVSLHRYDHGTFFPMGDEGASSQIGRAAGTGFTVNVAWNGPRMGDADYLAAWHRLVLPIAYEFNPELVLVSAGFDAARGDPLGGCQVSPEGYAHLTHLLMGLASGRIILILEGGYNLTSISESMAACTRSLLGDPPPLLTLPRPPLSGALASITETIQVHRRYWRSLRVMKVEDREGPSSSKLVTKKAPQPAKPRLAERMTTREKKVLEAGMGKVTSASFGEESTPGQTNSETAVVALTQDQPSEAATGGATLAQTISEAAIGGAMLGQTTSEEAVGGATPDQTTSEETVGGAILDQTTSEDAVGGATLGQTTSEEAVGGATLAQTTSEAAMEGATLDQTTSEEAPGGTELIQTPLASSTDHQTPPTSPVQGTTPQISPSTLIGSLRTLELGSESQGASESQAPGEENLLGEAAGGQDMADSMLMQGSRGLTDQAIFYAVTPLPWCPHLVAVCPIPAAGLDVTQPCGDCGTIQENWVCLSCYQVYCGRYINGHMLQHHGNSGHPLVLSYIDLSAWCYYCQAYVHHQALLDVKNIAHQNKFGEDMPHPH
Kind of experiment: Inhibition of HDAC6.

For another experiment, the target named is Histone deacetylase 2 (Homo sapiens, UniProt Q92769).
A further experiment has as its target Histone deacetylase 1 (Homo sapiens, UniProt Q13547). Kind of experiment: Inhibition of HDAC1.
Experiment [5] has as its target T3, Polyamine deacetylase HDAC10 (Homo sapiens, UniProt Q969S8).
T3 sequence (Q969S8 whole entry): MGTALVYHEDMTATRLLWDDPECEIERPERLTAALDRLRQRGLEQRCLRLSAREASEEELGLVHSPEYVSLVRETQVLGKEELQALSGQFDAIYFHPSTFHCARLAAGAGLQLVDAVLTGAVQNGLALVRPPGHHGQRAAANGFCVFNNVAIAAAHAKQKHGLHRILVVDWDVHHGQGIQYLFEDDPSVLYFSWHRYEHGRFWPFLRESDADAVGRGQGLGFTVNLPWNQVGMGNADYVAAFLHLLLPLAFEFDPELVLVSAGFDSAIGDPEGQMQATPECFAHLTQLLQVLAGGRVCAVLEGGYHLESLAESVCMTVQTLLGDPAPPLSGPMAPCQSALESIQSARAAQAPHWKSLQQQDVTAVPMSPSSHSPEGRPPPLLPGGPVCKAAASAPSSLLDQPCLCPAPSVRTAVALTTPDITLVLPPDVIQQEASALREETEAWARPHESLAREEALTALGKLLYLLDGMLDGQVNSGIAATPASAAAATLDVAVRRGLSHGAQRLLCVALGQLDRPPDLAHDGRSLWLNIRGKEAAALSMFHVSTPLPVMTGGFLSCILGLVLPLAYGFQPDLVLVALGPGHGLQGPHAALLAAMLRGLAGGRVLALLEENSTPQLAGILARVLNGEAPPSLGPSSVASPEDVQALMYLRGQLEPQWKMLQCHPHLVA
Kind of experiment: Inhibition of HDAC10.

For another experiment, the target named is Histone deacetylase 3 (Homo sapiens, UniProt O15379). Kind of experiment: Inhibition of HDAC3.
Histone deacetylase 3, sequence (O15379 whole entry): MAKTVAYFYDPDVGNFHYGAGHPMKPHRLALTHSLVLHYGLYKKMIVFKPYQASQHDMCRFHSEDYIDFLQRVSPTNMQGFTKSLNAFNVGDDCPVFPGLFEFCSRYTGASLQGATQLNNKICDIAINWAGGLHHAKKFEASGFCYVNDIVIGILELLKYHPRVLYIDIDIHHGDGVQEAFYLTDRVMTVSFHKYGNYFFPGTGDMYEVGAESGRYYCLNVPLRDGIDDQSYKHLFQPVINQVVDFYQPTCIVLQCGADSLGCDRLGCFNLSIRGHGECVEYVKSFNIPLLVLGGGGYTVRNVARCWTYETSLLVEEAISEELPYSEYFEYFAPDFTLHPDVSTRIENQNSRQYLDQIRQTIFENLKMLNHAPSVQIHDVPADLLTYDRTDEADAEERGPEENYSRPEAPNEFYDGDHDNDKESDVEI

Histone deacetylase 2, sequence (Q92769 whole entry): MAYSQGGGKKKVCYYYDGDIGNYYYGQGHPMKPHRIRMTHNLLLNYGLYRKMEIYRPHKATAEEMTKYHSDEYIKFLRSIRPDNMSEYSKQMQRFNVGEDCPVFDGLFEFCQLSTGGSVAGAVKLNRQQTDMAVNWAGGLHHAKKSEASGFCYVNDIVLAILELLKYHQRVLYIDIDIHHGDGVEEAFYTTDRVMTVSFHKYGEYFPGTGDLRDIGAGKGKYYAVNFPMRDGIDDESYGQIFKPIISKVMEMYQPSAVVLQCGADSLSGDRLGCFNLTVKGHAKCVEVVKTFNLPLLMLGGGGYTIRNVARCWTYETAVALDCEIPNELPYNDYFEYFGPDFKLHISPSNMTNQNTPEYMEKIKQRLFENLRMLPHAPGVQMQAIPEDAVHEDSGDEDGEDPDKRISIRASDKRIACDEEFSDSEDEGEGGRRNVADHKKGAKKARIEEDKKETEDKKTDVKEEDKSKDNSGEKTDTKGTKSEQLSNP
Histone deacetylase 1, sequence (Q13547 whole entry): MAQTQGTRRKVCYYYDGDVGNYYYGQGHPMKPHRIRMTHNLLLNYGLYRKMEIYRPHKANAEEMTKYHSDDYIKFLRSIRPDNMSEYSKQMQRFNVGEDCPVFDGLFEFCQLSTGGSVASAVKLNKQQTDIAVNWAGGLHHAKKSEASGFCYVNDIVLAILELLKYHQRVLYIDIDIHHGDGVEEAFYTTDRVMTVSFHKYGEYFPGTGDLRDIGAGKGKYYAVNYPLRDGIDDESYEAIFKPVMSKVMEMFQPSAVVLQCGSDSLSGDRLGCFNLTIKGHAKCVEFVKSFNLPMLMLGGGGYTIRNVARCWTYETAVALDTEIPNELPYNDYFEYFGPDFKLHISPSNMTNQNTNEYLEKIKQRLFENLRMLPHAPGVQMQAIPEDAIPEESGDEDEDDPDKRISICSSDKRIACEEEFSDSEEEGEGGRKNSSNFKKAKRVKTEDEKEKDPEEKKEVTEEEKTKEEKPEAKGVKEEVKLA

Regarding `O=C(CCCCc1cc(-c2ccccc2O)no1)Nc1ccccc1`, the inhibition in experiment [1], in experiment [2] and in experiment [3] was 0% each time.

In the case of `O=C(CCCCc1cc(CS)no1)Nc1ccccc1`, the values for the inhibition in experiment [1], in experiment [2] and in experiment [3] were 80%, 4.5% and 22%, respectively.

With `O=C(CCCc1cc(C(=O)NO)no1)Nc1ccccc1`, the results for the inhibition in experiment [1], in experiment [2] and in experiment [3] were 78.5%, 4.5% and 23.8%, respectively.

Consider `Nc1ccccc1-c1cc(CCCCC(=O)Nc2ccccc2)on1`, for which the inhibition in experiment [1] was 0.5%; in experiment [2], 0%; in experiment [3], 0%.

In the case of `O=C(CCCCc1cc(C(=O)O)no1)Nc1ccccc1`, the results for the inhibition in experiment [1], in experiment [2] and in experiment [3] were 0.5%, 0% and 0%, respectively.

With `Nc1cc(CCCCC(=O)Nc2ccccc2)on1`, the inhibition in experiment [1] is 0%; in experiment [2] it was 4.5%; in experiment [3], 0%.

As to `O=C(CCCCc1cc(/C=N/O)no1)Nc1ccccc1`, the results for the inhibition in experiment [1], in experiment [2] and in experiment [3] were 7.5%, 0% and 0.75%, respectively.

For the compound `O=C(CCCCc1cc(Cc2nn[nH]n2)no1)Nc1ccccc1`, the inhibition in experiment [1] amounted to 5%; in experiment [2] it was 0%; in experiment [3] it was 0%.

As to `O=C(CCCCc1cc(CO)no1)Nc1ccccc1`, the inhibition in experiment [1], in experiment [2] and in experiment [3] was 0% throughout.

In the case of `O=C(CCCCC1CC(C(=O)NO)=NO1)Nc1ccccc1` (centres undefined), the values for the inhibition in experiment [1], in experiment [2] and in experiment [3] were 77%, 4% and 16.8%, respectively. Moreover, the concentration for half-maximal inhibition (IC50) in experiment [4] stood at 0.76 µM; against Histone deacetylase 2 it was 36.2 µM; against Histone deacetylase 1, 17.7 µM; in experiment [5], 23.9 µM; against Histone deacetylase 3, 28.1 µM.

Turning to `O=C(CCCC1CC(C(=O)NO)=NO1)Nc1ccccc1` (centres undefined), the inhibition came out at 56% in experiment [1], 3.5% in experiment [2] and 9.75% in experiment [3].

For the compound `O=C(CCCCc1cc(C(=O)NO)no1)Nc1ccccc1`, the inhibition in experiment [1] came out at 78.5%; in experiment [2], 1.5%; in experiment [3], 26%. In addition, the half-inhibitory concentration (IC50) in experiment [4] amounted to 0.43 µM; at Histone deacetylase 2, 18.9 µM; against Histone deacetylase 1 it was 4.95 µM; in experiment [5], 9.05 µM; against Histone deacetylase 3, 26.7 µM.

For the compound `NNC(=O)c1cc(CCCCC(=O)Nc2ccccc2)on1`, the values for the inhibition in experiment [1], in experiment [2] and in experiment [3] were 8%, 0% and 0%, respectively.
